Key:
[1] = test system: subjects with MDD at imminent risk for suicide; conditions: 84 mg
Excerpt: Among 68 randomized subjects, 66 were included in the safety analysis set (defined as receiving at least one dose of study medication in the double-blind phase). […] All safety subjects (N=66) were included in the intent-to-treat (ITT) analysis set (defined as receiving at least one dose of study medication during the double-blind phase and having both the baseline and the Day 1, 4-hour postdose evaluation for the MADRS total score). Forty-nine subjects were included in the safety (FU) analysis set (defined as all subjects who have at least 1 visit during the follow up phase).

[2] = test system: patients with treatment-resistant depression (TRD); experiment: CGI-S, phase 2 dose-response study in TRD; assay type: in vivo, human
Experimental: Overall illness severity was assessed on the Clinical Global Impression of Severity (CGI-S) scale (Guy, “ECDEU Assessment Manual for Psychopharmacology-Revised (DHEW Publ No ADM 76-338)”, Rockville, Md.: U.S. Department of Health, Education, and Welfare, Public Health Service, Alcohol, Drug Abuse, and Mental Health Administration, NIMH Psychopharmacology Research Branch, Division of Extramural Research Programs; 1976, pp 218-222). Participants assessed their severity of anxiety on the Generalized Anxiety Disorder 7-item (GADS-7) Scale (See, Tables 157 and 158). See, Spitzer, “A brief measure for assessing generalized anxiety disorder—the GAD-7”, Arch. Intern. Med., 2006, 166(10):1092-1097.

[3] = human, in vivo, other: intranasal

CN[C@]1(c2ccccc2Cl)CCCCC1=O [esketamine, (S)-2-(2-chlorophenyl)-2-(methylamino)cyclohexanone]
Subjects with possibly related TEAE (%) ([1]; double-blind phase, N = 35, possible, probable, very likely): 82.9% | AE Abdominal pain, subjects (%) ([1]; follow up phase, N = 27): (3.7%) | AE Abdominal tenderness, subjects (%) ([1]; follow up phase, N = 27): (3.7%) | AE Back pain, subjects (%) ([1]; follow up phase, N = 27): (3.7%) | AE Cogwheel rigidity, subjects (%) ([1]; follow up phase, N = 27): (3.7%) | AE Contusion, subjects (%) ([1]; follow up phase, N = 27): (3.7%) | AE Depression, subjects (%) ([1]; follow up phase, N = 27): (3.7%) | AE Diarrhea, subjects (%) ([1]; follow up phase, N = 27): (3.7%) | AE Dizziness, subjects (%) ([1]; follow up phase, N = 27): (3.7%) | AE Dry mouth, subjects (%) ([1]; follow up phase, N = 27): (7.4%) | AE Dysgeusia, subjects (%) ([1]; follow up phase, N = 27): (3.7%) | AE Ear infection, subjects (%) ([1]; follow up phase, N = 27): (3.7%) | AE Epistaxis, subjects (%) ([1]; follow up phase, N = 27): (3.7%) | AE Flank pain, subjects (%) ([1]; follow up phase, N = 27): (3.7%) | AE Gastrointestinal disorders, subjects (%) ([1]; follow up phase, N = 27): (22.2%) | AE Headache, subjects (%) ([1]; follow up phase, N = 27): (7.4%) | AE Infections and infestations, subjects (%) ([1]; follow up phase, N = 27): (11.1%) | AE Injury, poisoning and procedural complications, subjects (%) ([1]; follow up phase, N = 27): (7.4%) | AE Insomnia, subjects (%) ([1]; follow up phase, N = 27): (11.1%) | AE Intentional self-injury, subjects (%) ([1]; follow up phase, N = 27): (3.7%) | AE Loss of consciousness, subjects (%) ([1]; follow up phase, N = 27): (3.7%) | AE Migraine, subjects (%) ([1]; follow up phase, N = 27): (3.7%) | AE Musculoskeletal and connective tissue disorders, subjects (%) ([1]; follow up phase, N = 27): (7.4%) | AE Musculoskeletal chest pain, subjects (%) ([1]; follow up phase, N = 27): (3.7%) | AE Musculoskeletal pain, subjects (%) ([1]; follow up phase, N = 27): (3.7%) | AE Nasal congestion, subjects (%) ([1]; follow up phase, N = 27): (3.7%) | AE Nasopharyngitis, subjects (%) ([1]; follow up phase, N = 27): (3.7%) | AE Neck pain, subjects (%) ([1]; follow up phase, N = 27): (3.7%) | AE Nervous system disorders, subjects (%) ([1]; follow up phase, N = 27): (22.2%) | AE Night sweats, subjects (%) ([1]; follow up phase, N = 27): (3.7%) | AE Pelvic pain, subjects (%) ([1]; follow up phase, N = 27): (3.7%) | AE Pharyngitis, subjects (%) ([1]; follow up phase, N = 27): (7.4%) | AE Psychiatric disorders, subjects (%) ([1]; follow up phase, N = 27): (18.5%) | AE Reproductive system and breast disorders, subjects (%) ([1]; follow up phase, N = 27): (3.7%) | AE Respiratory, thoracic and mediastinal disorders, subjects (%) ([1]; follow up phase, N = 27): (7.4%) | AE Restlessness, subjects (%) ([1]; follow up phase, N = 27): (3.7%) | AE Road traffic accident, subjects (%) ([1]; follow up phase, N = 27): (3.7%) | AE Sedation, subjects (%) ([1]; follow up phase, N = 27): (3.7%) | AE Skin and subcutaneous tissue disorders, subjects (%) ([1]; follow up phase, N = 27): (3.7%) | AE Suicidal ideation, subjects (%) ([1]; follow up phase, N = 27): (3.7%) | AE Tremor, subjects (%) ([1]; follow up phase, N = 27): (7.4%) | AE Upper respiratory tract infection, subjects (%) ([1]; follow up phase, N = 27): (3.7%) | AE Vomiting, subjects (%) ([1]; follow up phase, N = 27): (3.7%) | AE Vulvovaginal mycotic infection, subjects (%) ([1]; follow up phase, N = 27): (3.7%) | Serious AE: Psychiatric disorders, subjects (%) ([1]; follow up phase, N = 27): 3.7% | Serious AE: Suicidal ideation, subjects (%) ([1]; follow up phase, N = 27): 3.7% | Total no. subjects with a serious adverse event (%) ([1]; follow up phase, N = 27): 3.7% | Total no. subjects with adverse events (%) ([1]; follow up phase, N = 27): (48.1%) | Subjects who discontinued from the double-blind phase due to adverse events [1, 3]: 5 subjects | Subjects with at least one TEAE [1, 3]: 94.3% | Subjects with at least one adverse event [1, 3]: 48.1% | TEAE dissociation, % of subjects [1, 3]: 31.4% | TEAE dizziness, % of subjects [1, 3]: 34.3% | TEAE dysgeusia, % of subjects [1, 3]: 31.4% | TEAE headache, % of subjects [1, 3]: 31.4% | TEAE nausea, % of subjects [1, 3]: 37.1% | TEAE vomiting, % of subjects [1, 3]: 20.0% | Subjects with a serious adverse event ([1]; human, in vivo, other: intranasal, 56 day): 1 | CGI-S Median (Range) ([2]; Period 1, 28 mg): 4.0 (3, 5) | CGI-S Median Change (Range) from baseline to end point ([2]; Period 1, 28 mg): −1.0 (−2, 1) | CGI-S Median (Range) ([2]; Period 1, 56 mg): 4.0 (1, 5) | CGI-S Median Change (Range) from baseline to end point ([2]; Period 1, 56 mg): −1.0 (−3, 0) | CGI-S Median (Range) ([2]; Period 1, 84 mg): 4.0 (1, 6) | CGI-S Median Change (Range) from baseline to end point ([2]; Period 1, 84 mg): −0.5 (−4, 0) | CGI-S Median (Range) ([2]; Period 2, 28 mg): 4.0 (3, 5) | CGI-S Median Change (Range) from baseline to end point ([2]; Period 2, 28 mg): −1.0 (−1, 0) | CGI-S Median (Range) ([2]; Period 2, 56 mg): 5.0 (4, 6) | CGI-S Median Change (Range) from baseline to end point ([2]; Period 2, 56 mg): −1.0 (−2, 0) | CGI-S Median (Range) ([2]; Period 2, 84 mg): 4.0 (3, 5) | CGI-S Median Change (Range) from baseline to end point ([2]; Period 2, 84 mg): −1.0 (−2, 0)

Source: patent US20230121313A1 (priority 2019, published 2023)
